Marks after values point to notes of the source that are not given here.

The text below walks through data of PMC4370687, “Functional Characterization of the 1,5-Benzodiazepine Clobazam and Its Major Active Metabolite N-Desmethylclobazam at Human GABAA Receptors Expressed in Xenopus laevis Oocytes” (PLoS ONE, 2015).

The subject of data set [1] is human α1,2,3,5β2γ2S GABAARs. Conditions: cited from earlier work.
Another data set has as its system rat α3β3γ2L GABAAR. Conditions: patch clamp, cited from earlier work; for EC50: 3 μM GABA (EC10–EC20), HEK-293T cells; for Imax: % of the responses evoked by GABA EC10–EC20, HEK-293T cells. A general note: Patch clamp records ionic current or voltage across a cell membrane.
The target in the next data set is T1, human α2β2γ2S GABAAR (Homo sapiens, UniProt P18507+P47869+P47870).
T1 construct: expressed in transfected cells; host or cells: Xenopus laevis oocytes (cRNA injection, α:β2:γ2S 1:1:1; 1:1:5 in the zolpidem comparison)
Description: Potentiation of GABA EC20-evoked currents, TEVC in Xenopus oocytes. It is filed as cell-based. To be noted: for Imax ± S.E.M.: % of the response evoked by GABA EC20 (EC20 response = 100%). On the procedure:
(§1) The cDNAs encoding the human GABAAR subunits were linearized with DraIII (α1, α2, α3, α5 and α6), SmaI (β2 and γ2S) or StuI (δ) and used as templates for in vitro cRNA synthesis using the T7 mMESSAGE mMACHINE High Yield Capped RNA Transcription Kit (Life Technologies Corporation, Carlsbad, CA, USA). Except where otherwise indicated, Xenopus oocytes were injected with 36.8 nL cRNA solution encoding for α1β2γ2S, α2β2γ2S, α3β2γ2S and α5β2γ2S GABAARs in a 1:1:1 α:β2:γ2S ratio (2.7 ng/μL of each subunit), with 46 nL cRNA solution encoding for the α6β2δ GABAAR in a 10:1:10 α6:β2:δ ratio (1:0.1:1 μg/μL), with 18 nL cRNA solution encoding for the α1β2 GABAAR in a 1:1 α1:β2 ratio (0.6:0.6 μg/μL), or with 46 nL cRNA encoding for α6β2 (α6:β2 ratio: 1:0.1 μg/μL). Following injection, the oocytes were incubated at 18°C in modified Barth’s solution [88 mM NaCl, 1 mM KCl, 15 mM HEPES (pH 7.5), 2.4 mM NaHCO3, 0.41 mM CaCl2, 0.82 mM MgSO4, 0.3 mM Ca(NO3)2, 100 U/mL penicillin and 100 μg/mL streptomycin]. Electrophysiological recordings were performed 3 to 6 days after injection.
(§2) Electrophysiological recordings were performed using the TEVC technique on Xenopus oocytes expressing various GABAAR combinations using a protocol adapted from previous studies. […] Cells were impaled with agar-plugged 0.5–1 MΩ electrodes containing 3 M KCl and voltage clamped at −70 mV by a Gene Clamp 500B amplifier (Axon Instruments, Union City, CA, USA) and recorded with pClamp 10 (Windows version, Molecular Devices, LLC, Sunnyvale, CA, USA). The oocytes were continuously perfused with Ringer buffer, and the test compounds were applied in the perfusate. Experiments were performed at room temperature and each data point represents the mean ± S.E.M. value of recordings performed on at least two oocytes from at least two different batches of oocytes. The recorded baseline-to-peak current amplitudes were analyzed using Clampfit 10.1 (Axon Instruments, Union City, CA, USA). […] The presence of δ in cell surface-expressed receptors in α6β2δ-injected oocytes was confirmed on a routinely basis using the δ-GABAAR selective PAM DS2 (1 μM). Furthermore, taking advantage of the differential sensitivity of αβ and αβδ receptors to Zn^2+ as antagonist, 1 μM ZnCl2 was used to verify that a homogenous population of ternary α6β2δ receptor complexes was expressed in these oocytes.
(§3) Two to five minutes of wash time between each application were permitted to overcome receptor desensitization. […] Concentration-response curves for the benzodiazepines were fitted using Equation 1.
To address this aspect, we compared the maximum responses mediated by saturating concentrations (3 μM) of clobazam, N-desmethylclobazam, and clonazepam at the GABAARs with the maximal responses mediated by a saturating concentration of diazepam, a 1,4-benzodiazepine often referred to as a “full benzodiazepine agonist”. […] We also compared the maximum degree of potentiation mediated by clobazam at the α2β2γ2S GABAAR with the maximal responses induced by a saturating concentration of zolpidem. […] In this experiment cRNA for α2β2γ2S was injected in a ratio of 1:1:5 (α2:β2:γ2S) to facilitate the expression of a homogenous population of γ2S-containing complexes.

For data set [2] the following is noted: humans; cited from earlier work.
The target of a further data set is T2, human α3β2γ2S GABAAR (Homo sapiens, UniProt P18507+P34903+P47870).
T2 construct: expressed in transfected cells; host or cells: Xenopus laevis oocytes (cRNA injection, 1:1:1)
Description: Potentiation of GABA EC20-evoked currents, TEVC in Xenopus oocytes. It is filed as cell-based. To be noted: for Imax ± S.E.M.: % of the response evoked by GABA EC20 (EC20 response = 100%). As to the method:
as §1, §2, §3

The target in the next data set is T3, human α6β2 GABAAR (Homo sapiens, UniProt P47870+Q16445).
T3 construct: expressed in transfected cells; host or cells: Xenopus laevis oocytes (cRNA injection)
The data set is described as above. It is filed as cell-based. On the procedure:
as §1, §2, §3

In another data set the target is T4, human α6β2δ GABAAR (Homo sapiens, UniProt P47870+Q16445).
T4 construct: expressed in transfected cells; host or cells: Xenopus laevis oocytes (cRNA injection, α6:β2:δ 10:1:10)
The description is as above. To be noted: for EC50: co-applied with GABA EC20, N-desmethylclobazam value estimated, curve not saturated at 1 mM. It is filed as cell-based. On the procedure:
as §1, §2, §3

The target of the next data set is T5, human α5β2γ2S GABAAR (Homo sapiens, UniProt P18507+P31644+P47870).
T5 construct: expressed in transfected cells; host or cells: Xenopus laevis oocytes (cRNA injection, 1:1:1)
Described as above. It is filed as cell-based. Conditions: for Imax ± S.E.M.: % of the response evoked by GABA EC20 (EC20 response = 100%). On the procedure: as §1, §2, §3

Data set [3] addresses T6, human α1β2γ2S GABAAR (Homo sapiens, UniProt P14867+P18507+P47870). To be noted: for Imax ± S.E.M.: % of the response evoked by GABA EC20 (EC20 response = 100%).
Description: Electrophysiological recordings were performed using the TEVC technique on Xenopus oocytes expressing various GABAAR combinations using a protocol adapted from previous studies [44, 45]. […] Cells were impaled with agar-plugged 0.5–1 MΩ electrodes containing 3 M KCl and voltage clamped at −70 mV by a Gene Clamp 500B amplifier (Axon Instruments, Union City, CA, USA) and recorded with pClamp 10 (Windows version, Molecular Devices, LLC, Sunnyvale, CA, USA). The oocytes were continuously perfused with Ringer buffer, and the test compounds were applied in the perfusate. Experiments were performed at room temperature and each data point represents the mean ± S.E.M. value of recordings performed on at least two oocytes from at least two different batches of oocytes. The recorded baseline-to-peak current amplitudes were analyzed using Clampfit 10.1 (Axon Instruments, Union City, CA, USA).
Data set [4] has as its target T6, human α1β2γ2S GABAAR. Description: cell-based.
The next data set has as its target T7, human α1β2 GABAAR (Homo sapiens, UniProt P14867+P47870).
T7 construct: expressed in transfected cells; host or cells: Xenopus laevis oocytes (cRNA injection, α1:β2 1:1)
T7 sequence (P14867 28-456): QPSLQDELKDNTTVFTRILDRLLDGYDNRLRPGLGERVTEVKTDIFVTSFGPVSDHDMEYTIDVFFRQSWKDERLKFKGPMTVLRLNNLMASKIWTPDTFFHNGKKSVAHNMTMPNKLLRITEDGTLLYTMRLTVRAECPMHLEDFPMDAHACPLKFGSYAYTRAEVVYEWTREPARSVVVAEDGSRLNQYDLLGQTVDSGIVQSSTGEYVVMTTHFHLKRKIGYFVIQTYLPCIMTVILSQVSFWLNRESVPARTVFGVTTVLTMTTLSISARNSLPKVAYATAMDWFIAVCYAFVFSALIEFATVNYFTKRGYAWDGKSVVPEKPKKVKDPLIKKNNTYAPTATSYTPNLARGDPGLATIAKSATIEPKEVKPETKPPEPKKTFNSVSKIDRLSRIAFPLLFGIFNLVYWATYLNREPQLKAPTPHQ
T7 sequence (P47870 26-474 isoform P47870-1 limits assumed): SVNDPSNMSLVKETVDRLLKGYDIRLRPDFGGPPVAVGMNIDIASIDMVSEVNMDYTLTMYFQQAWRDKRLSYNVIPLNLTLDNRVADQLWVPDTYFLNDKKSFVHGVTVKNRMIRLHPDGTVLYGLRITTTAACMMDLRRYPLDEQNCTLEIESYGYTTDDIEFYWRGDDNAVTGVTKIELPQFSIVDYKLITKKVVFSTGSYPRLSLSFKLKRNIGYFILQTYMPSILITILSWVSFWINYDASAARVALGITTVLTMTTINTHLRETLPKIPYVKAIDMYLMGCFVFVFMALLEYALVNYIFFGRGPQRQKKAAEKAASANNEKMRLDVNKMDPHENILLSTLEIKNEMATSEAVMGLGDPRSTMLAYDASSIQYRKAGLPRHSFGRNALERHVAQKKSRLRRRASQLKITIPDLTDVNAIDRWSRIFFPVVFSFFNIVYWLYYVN
Nature of the data set: Zinc-mediated inhibition of GABA EC80-evoked currents, TEVC in Xenopus oocytes. It is filed as cell-based. To be noted: 100 μM Zn2+, 10 μM GABA (EC80), mean ± S.E.M. On the procedure: as §1, with “Following injection, the oocytes were incubated at 18°C in modified Barth’s solution [88 mM NaCl, 1 mM KCl, 15 mM HEPES (pH 7.5), 2.4 mM NaHCO3, 0.41 mM CaCl2, 0.82 mM MgSO4, 0.3 mM Ca(NO3)2, 100 U/mL penicillin and 100 μg/mL streptomycin]. Electrophysiological recordings were performed 3 to 6 days after injection.” left out
(§4) Electrophysiological recordings were performed using the TEVC technique on Xenopus oocytes expressing various GABAAR combinations using a protocol adapted from previous studies. […] Cells were impaled with agar-plugged 0.5–1 MΩ electrodes containing 3 M KCl and voltage clamped at −70 mV by a Gene Clamp 500B amplifier (Axon Instruments, Union City, CA, USA) and recorded with pClamp 10 (Windows version, Molecular Devices, LLC, Sunnyvale, CA, USA). […] The recorded baseline-to-peak current amplitudes were analyzed using Clampfit 10.1 (Axon Instruments, Union City, CA, USA). […]

Data set [5] deals with T6, human α1β2γ2S GABAAR. Described as above. It is filed as cell-based. The arrangement: expressed in transfected cells; host or cells: Xenopus laevis oocytes (cRNA injection, α:β2:γ2S 1:1:1). To be noted: 100 μM Zn2+, 100 μM GABA (EC80), mean ± S.E.M. On the procedure: as §1, with “Following injection, the oocytes were incubated at 18°C in modified Barth’s solution [88 mM NaCl, 1 mM KCl, 15 mM HEPES (pH 7.5), 2.4 mM NaHCO3, 0.41 mM CaCl2, 0.82 mM MgSO4, 0.3 mM Ca(NO3)2, 100 U/mL penicillin and 100 μg/mL streptomycin]. Electrophysiological recordings were performed 3 to 6 days after injection.” left out
as §4

Where [6] appears, read: 1 mM compound, in % of the GABA EC20 response, curve not saturated.

T6 sequence (P18507 40-467 isoform P18507-1 limits assumed, one chain of several): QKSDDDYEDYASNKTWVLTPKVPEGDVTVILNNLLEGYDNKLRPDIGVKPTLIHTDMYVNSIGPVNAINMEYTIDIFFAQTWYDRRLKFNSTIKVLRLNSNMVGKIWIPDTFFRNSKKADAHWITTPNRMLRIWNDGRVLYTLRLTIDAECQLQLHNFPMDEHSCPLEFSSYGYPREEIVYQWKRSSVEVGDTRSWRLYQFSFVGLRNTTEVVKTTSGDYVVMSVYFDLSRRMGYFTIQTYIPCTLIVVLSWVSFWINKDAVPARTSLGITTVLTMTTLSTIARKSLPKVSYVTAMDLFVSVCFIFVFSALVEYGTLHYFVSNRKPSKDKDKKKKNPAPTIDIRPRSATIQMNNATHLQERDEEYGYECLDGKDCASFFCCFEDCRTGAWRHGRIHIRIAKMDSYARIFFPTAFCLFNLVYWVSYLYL
T4 sequence (Q16445 20-453, one chain of several): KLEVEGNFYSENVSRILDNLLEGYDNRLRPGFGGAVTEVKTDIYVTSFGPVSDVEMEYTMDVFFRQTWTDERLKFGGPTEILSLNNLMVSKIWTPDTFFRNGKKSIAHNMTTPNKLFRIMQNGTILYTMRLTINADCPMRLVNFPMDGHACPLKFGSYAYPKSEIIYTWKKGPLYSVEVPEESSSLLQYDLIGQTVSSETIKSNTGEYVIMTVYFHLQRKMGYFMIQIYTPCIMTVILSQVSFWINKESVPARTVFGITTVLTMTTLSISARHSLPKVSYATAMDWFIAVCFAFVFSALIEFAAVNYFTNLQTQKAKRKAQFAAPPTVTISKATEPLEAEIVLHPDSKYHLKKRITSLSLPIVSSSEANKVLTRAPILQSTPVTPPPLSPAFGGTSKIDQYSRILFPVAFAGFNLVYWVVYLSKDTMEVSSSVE
T4 sequence (O14764 25-452 partner, one chain of several): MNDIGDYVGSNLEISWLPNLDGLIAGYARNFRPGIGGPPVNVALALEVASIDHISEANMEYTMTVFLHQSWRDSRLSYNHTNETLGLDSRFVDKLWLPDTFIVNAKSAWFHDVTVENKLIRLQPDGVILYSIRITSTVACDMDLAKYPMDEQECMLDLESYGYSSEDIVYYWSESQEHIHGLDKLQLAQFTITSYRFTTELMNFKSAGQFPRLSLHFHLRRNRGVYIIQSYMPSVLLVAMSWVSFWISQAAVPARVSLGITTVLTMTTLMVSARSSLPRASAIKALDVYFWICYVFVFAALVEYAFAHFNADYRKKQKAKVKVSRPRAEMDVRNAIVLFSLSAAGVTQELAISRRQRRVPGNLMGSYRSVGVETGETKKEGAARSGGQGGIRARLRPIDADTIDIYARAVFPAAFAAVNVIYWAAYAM
T5 sequence (P31644 32-462, one chain of several): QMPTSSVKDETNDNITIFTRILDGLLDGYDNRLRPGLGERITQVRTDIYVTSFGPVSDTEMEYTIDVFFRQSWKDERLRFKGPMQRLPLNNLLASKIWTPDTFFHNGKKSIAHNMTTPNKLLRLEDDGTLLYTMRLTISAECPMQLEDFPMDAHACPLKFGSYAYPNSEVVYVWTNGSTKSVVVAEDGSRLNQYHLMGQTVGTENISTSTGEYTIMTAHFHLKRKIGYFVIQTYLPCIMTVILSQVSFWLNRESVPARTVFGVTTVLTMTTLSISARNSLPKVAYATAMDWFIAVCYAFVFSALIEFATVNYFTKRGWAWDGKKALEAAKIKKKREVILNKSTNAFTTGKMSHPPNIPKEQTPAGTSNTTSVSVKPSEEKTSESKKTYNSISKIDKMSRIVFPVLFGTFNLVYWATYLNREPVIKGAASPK
T5 sequence (P18507 40-467 isoform P18507-1 limits assumed, one chain of several): as the sequence (P18507 40-467 isoform P18507-1 limits assumed, one chain of several) above
T1 sequence (P47869 29-451, one chain of several): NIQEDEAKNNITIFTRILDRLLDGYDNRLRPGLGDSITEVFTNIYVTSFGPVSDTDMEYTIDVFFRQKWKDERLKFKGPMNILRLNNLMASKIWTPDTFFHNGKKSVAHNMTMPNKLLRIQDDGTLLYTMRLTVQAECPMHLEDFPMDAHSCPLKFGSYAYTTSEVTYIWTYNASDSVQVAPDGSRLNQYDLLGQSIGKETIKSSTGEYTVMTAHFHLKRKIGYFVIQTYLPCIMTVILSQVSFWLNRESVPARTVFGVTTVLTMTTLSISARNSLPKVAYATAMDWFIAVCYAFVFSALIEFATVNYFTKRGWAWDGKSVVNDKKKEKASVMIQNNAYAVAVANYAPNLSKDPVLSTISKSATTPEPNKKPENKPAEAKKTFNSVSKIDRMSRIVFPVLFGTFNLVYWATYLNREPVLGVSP
T1 sequence (P18507 40-467 isoform P18507-1 limits assumed, one chain of several): as the sequence (P18507 40-467 isoform P18507-1 limits assumed, one chain of several) above
T2 sequence (P34903 29-492, one chain of several): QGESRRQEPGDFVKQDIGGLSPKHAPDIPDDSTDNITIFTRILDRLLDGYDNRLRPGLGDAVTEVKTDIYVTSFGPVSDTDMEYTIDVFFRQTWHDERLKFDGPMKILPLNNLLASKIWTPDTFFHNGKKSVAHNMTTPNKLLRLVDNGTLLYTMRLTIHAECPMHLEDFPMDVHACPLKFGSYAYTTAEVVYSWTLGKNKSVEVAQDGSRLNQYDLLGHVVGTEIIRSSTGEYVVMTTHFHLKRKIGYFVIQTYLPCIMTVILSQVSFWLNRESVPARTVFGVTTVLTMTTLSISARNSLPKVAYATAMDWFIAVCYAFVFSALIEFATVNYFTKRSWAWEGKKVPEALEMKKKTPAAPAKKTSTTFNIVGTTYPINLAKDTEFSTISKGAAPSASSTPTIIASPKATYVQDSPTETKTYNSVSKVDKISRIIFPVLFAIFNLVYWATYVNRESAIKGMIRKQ
T2 sequence (P18507 40-467 isoform P18507-1 limits assumed, one chain of several): as the sequence (P18507 40-467 isoform P18507-1 limits assumed, one chain of several) above
T3 sequence (Q16445 20-453, one chain of several): as the sequence (Q16445 20-453, one chain of several) above

Turning to `O=C1CC(=O)N(c2ccccc2)c2cc(Cl)ccc2N1` [N-desmethylclobazam], the “fold higher binding affinity at α2β2γ2S compared to α1β2γ2S” value in data set [1] is given as 4.3 fold. The EC50 (usually the concentration needed to bring the measured effect to its halfway point) in the data set on rat α3β3γ2L GABAAR is 550 nM; at human α2β2γ2S GABAAR it was 138 nM; at human α3β2γ2S GABAAR, 282 nM; on human α6β2 GABAAR it was roughly 300000 nM; on human α6β2δ GABAAR (EC50, PAM), roughly 300000 nM; on human α5β2γ2S GABAAR, 98 nM. The molecule also came in with an EC50 on human α1β2γ2S GABAAR [4] of 151 nM. Further, the Imax in the data set with rat α3β3γ2L GABAAR is on record as 270%. The “Imax ± S.E.M.” value on human α2β2γ2S GABAAR is 270 ± 20%; at human α3β2γ2S GABAAR, 270 ± 27%; at human α5β2γ2S GABAAR, 233 (248 and 217) ^b %; on human α1β2γ2S GABAAR [3], 203 ± 8.5%. Besides, the plasma half-life in data set [2] is recorded as 79 h. Also, the “current evoked by 1 mM (given instead of Imax)” value at human α6β2 GABAAR (setting [6]) is reported as 2350 ± 200 ^a %; on human α6β2δ GABAAR (setting [6]), 2420 ± 210 ^a %. The “fold potentiation of the GABA EC20-evoked response” value on human α6β2δ GABAAR (1 mM compound, curve not saturated) is given as roughly 24 fold.

With `[Cl-].[Cl-].[Zn+2]` [Zn^2+, ZnCl2], the “degree of inhibition of GABA EC80-evoked currents” value at human α1β2 GABAAR is recorded as 77 ± 6.3%; at human α1β2γ2S GABAAR [5], 4.7 ± 4.6%.

On to `O=C1CN=C(c2ccccc2Cl)c2cc([N+](=O)[O-])ccc2N1` [clonazepam], for which the EC50 in the data set on rat α3β3γ2L GABAAR was 90 nM; on human α2β2γ2S GABAAR, 7.4 nM; at human α3β2γ2S GABAAR, 16 nM; on human α6β2δ GABAAR (EC50, PAM), 29000 nM; at human α6β2δ GABAAR (pEC50 ± S.E.M., PAM) it was 29500 nM; at human α5β2γ2S GABAAR it was 20.9 nM. At human α1β2γ2S GABAAR [4], this molecule showed an EC50 of 15.5 nM. For the same molecule, the Imax in the data set on rat α3β3γ2L GABAAR was 263%. Also, the “Imax ± S.E.M.” value is 253 ± 17% at human α2β2γ2S GABAAR; 316 (334 and 297) ^b % on human α3β2γ2S GABAAR; 283 ± 38% on human α6β2δ GABAAR (% of the response evoked by GABA EC20 (EC20 response = 100%)); 255 ± 25% on human α5β2γ2S GABAAR; 209 ± 14% at human α1β2γ2S GABAAR [3]. The “fold more potent than N-desmethylclobazam as a PAM” value at human α2β2γ2S GABAAR (EC50 ratio) worked out at 19 fold; on human α3β2γ2S GABAAR (EC50 ratio) it was 18 fold; at human α5β2γ2S GABAAR (EC50 ratio), 5 fold; at human α1β2γ2S GABAAR [3] (EC50 ratio), 10 fold. Besides, the “fold more potent than clobazam as a PAM” value was found to be 19 fold at human α2β2γ2S GABAAR (EC50 ratio), 15 fold at human α3β2γ2S GABAAR (EC50 ratio), 8 fold on human α5β2γ2S GABAAR (EC50 ratio) and 9 fold at human α1β2γ2S GABAAR [3] (EC50 ratio).

On to `CN1C(=O)CN=C(c2ccccc2)c2cc(Cl)ccc21` [diazepam], for which the Imax with rat α3β3γ2L GABAAR was 508%.

With `Cc1ccc(-c2nc3ccc(C)cn3c2CC(=O)N(C)C)cc1` [zolpidem], at human α2β2γ2S GABAAR (saturating concentration (3 μM)), the “fold potentiation of GABA EC20-evoked currents” value is reported as 2.7 fold.
